BindingDB's records for doi:10.1021/acs.jmedchem.6b01870 (Purdue University, 2017)

Experiments:
[1] = molecular target: T1, Tyrosyl-DNA phosphodiesterase 2 (Homo sapiens, UniProt O95551); experiment: ChEBML_1689437
T1 sequence (O95551 whole entry): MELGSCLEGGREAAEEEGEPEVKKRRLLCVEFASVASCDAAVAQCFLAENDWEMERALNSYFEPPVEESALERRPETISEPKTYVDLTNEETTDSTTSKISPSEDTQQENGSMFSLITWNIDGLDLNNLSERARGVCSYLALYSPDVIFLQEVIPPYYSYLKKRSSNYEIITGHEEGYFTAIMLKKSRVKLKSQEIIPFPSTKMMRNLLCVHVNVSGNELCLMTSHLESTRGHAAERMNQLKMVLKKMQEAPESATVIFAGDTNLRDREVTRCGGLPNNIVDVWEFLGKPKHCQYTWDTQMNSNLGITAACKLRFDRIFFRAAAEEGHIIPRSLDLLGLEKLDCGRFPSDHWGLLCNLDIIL
Method: Inhibition of recombinant human TDP2 using 3'-labeled alpha-[32P]-cordycepin as substrate after 15 mins

[2] = molecular target: Tyrosyl-DNA phosphodiesterase 1 (Homo sapiens, UniProt Q9NUW8); experiment: ChEBML_1689436
Chain of Tyrosyl-DNA phosphodiesterase 1 (Q9NUW8 whole entry): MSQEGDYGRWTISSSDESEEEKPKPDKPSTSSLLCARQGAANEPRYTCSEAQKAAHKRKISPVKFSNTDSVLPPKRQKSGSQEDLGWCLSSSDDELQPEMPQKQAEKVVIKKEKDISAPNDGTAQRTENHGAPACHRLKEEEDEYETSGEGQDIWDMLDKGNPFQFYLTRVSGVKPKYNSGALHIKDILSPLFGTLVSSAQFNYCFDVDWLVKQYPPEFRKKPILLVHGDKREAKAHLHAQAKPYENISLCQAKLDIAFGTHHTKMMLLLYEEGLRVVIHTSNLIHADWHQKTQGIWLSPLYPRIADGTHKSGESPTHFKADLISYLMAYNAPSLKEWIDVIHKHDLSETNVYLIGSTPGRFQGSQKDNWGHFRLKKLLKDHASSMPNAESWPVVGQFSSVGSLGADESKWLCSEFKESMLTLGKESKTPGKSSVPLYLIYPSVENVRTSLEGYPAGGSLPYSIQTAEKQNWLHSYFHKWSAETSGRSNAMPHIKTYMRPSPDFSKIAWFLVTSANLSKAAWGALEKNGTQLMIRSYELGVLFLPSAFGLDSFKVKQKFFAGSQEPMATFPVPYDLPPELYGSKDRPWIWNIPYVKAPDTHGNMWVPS
Method: Inhibition of recombinant TDP1 (unknown origin) using 5'-[32P]-labeled single stranded DNA containing a 3'-phosphotyrosine as substrate after 15 mins by PAGE analysis

CC[C@@]1(O)C(=O)OCc2c1cc1n(c2=O)Cc2cc3ccccc3nc2-1 [4-Ethyl-4-hydroxy-1,12-dihydro-4H-2-oxa-6,12a-diaza-dibenzo[b,h]fluorene-3,13-dione (Camptothecin)]
IC50 [1]: > 111 µM | IC50 [2]: > 111 µM
